# Measured values as given in publication doi:10.1101/2024.07.21.604522v1 (biorxiv, 2024).
# Target: T1, human ChaC1 (ChaC1p) (Homo sapiens, UniProt Q9BUX1)
# T1 sequence (Q9BUX1 1-222): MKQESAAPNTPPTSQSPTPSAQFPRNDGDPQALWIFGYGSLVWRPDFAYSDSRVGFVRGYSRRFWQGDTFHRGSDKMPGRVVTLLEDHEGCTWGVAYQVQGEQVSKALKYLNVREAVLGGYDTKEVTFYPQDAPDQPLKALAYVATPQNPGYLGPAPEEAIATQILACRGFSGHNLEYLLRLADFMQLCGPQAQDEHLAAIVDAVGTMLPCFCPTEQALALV
# Test: ChaC1p-Dug1p coupled assay, cysteine by ninhydrin
# Format: biochemical
smiles,measurement,value
O=C1C=CC(=O)c2c(O)cccc21 [juglone],IC50,8.7 µM
